Among the test systems are LOX IMVI melanoma; HCT-15 colon; COLO 205 colon; SK-MEL-28 melanoma; SK-OV-3 ovarian; SF-268 CNS; CAKI-1 renal; NCI-H522 lung; SN12C renal; MCF7 breast; OVCAR-3 ovarian; CCRF-CEM leukemia; HCT-116 colon; SNB-19 CNS; NCI-H23 lung; HOP-62 NSCLC; HT29 colon; OVCAR-4 ovarian; MOLT-4 leukemia; M14 melanoma.
Common to all, as to test: NCI tumour cell line growth inhibition, 48 h

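Five concentrations, 48 hours, 96-well plates. TGI: total growth inhibition.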

Turning to `CC[C@]12C=CCN3CC[C@@]4(c5ccc(OC)cc5N(C)[C@H]4[C@@](O)(C(=O)OC)[C@@H]1OC(C)=O)[C@@H]32`, the TGI in the test on LOX IMVI melanoma was greater than 200 µM; with HCT-15 colon, greater than 63.2 µM; with COLO 205 colon, greater than 200 µM; with SK-MEL-28 melanoma, greater than 200 µM; with SK-OV-3 ovarian it was greater than 200 µM; in the test with SF-268 CNS it was greater than 200 µM. The TGI in the test with CAKI-1 renal was greater than 200 µM; in the test on NCI-H522 lung it was greater than 200 µM; with SN12C renal it was greater than 200 µM; with MCF7 breast, greater than 200 µM; in the test with OVCAR-3 ovarian, greater than 112 µM; in the test on CCRF-CEM leukemia, greater than 200 µM. In addition, the TGI was greater than 200 µM in the test on HCT-116 colon; greater than 200 µM with SNB-19 CNS; greater than 200 µM in the test on NCI-H23 lung; greater than 200 µM in the test with HOP-62 NSCLC; greater than 200 µM with HT29 colon; greater than 63.2 µM in the test on OVCAR-4 ovarian. The TGI with MOLT-4 leukemia was greater than 176 µM.

Turning to `CC(C)CCN=c1cc2n(-c3ccc(Cl)cc3)c3ccccc3nc-2cc1Nc1ccc(Cl)cc1`, the TGI is 8.03 µM in the test with LOX IMVI melanoma; 23.2 µM in the test with HCT-15 colon; 12.9 µM in the test with COLO 205 colon; greater than 82.8 µM with SK-MEL-28 melanoma; 70.2 µM in the test on SK-OV-3 ovarian; greater than 100 µM in the test on SF-268 CNS. For the same molecule, the TGI in the test with CAKI-1 renal is greater than 67.6 µM; in the test on NCI-H522 lung it was 7.06 µM; in the test with SN12C renal, 58.1 µM; in the test on MCF7 breast, greater than 42 µM; in the test with OVCAR-3 ovarian, 6.61 µM; with CCRF-CEM leukemia, greater than 91 µM. In addition, the TGI was 11.4 µM in the test on HCT-116 colon; greater than 100 µM with SNB-19 CNS; 12.1 µM in the test on NCI-H23 lung; 26.1 µM in the test on HOP-62 NSCLC; 19.8 µM with HT29 colon; 18.4 µM in the test with OVCAR-4 ovarian. Besides, the TGI in the test on MOLT-4 leukemia was greater than 51.8 µM.

Regarding `CC(=O)OC[C@H]1[C@@H]2C(CC[C@]13CO3)OC(=O)CC(C)[C@]2(C)CCc1ccoc1` (stereo partly specified), the TGI with LOX IMVI melanoma, in the test with HCT-15 colon, in the test on M14 melanoma, with COLO 205 colon, with SK-MEL-28 melanoma and with SK-OV-3 ovarian was greater than 100 µM each time. Further, the TGI in the test on SF-268 CNS, in the test with CAKI-1 renal, in the test on NCI-H522 lung, in the test on SN12C renal, in the test with MCF7 breast and in the test on OVCAR-3 ovarian was greater than 100 µM in each case. Besides, the TGI in the test on CCRF-CEM leukemia, with HCT-116 colon, in the test with SNB-19 CNS, in the test on NCI-H23 lung, in the test with HOP-62 NSCLC and in the test with HT29 colon was greater than 100 µM throughout. In addition, the TGI in the test on OVCAR-4 ovarian and in the test with MOLT-4 leukemia was greater than 100 µM each time.

Take `CC[N+](C)(CC)Cc1ccccc1[N+](=O)[O-]`: the TGI with LOX IMVI melanoma, with HCT-15 colon, in the test with M14 melanoma, in the test with COLO 205 colon, in the test with SK-MEL-28 melanoma and in the test with SK-OV-3 ovarian was greater than 100 µM in each case. Also, the TGI is greater than 100 µM with SF-268 CNS; greater than 100 µM with CAKI-1 renal; greater than 100 µM with NCI-H522 lung; greater than 100 µM in the test with SN12C renal; greater than 100 µM with MCF7 breast; 73.7 µM with OVCAR-3 ovarian. Also, the TGI in the test on CCRF-CEM leukemia, in the test on HCT-116 colon, in the test with NCI-H23 lung, with HOP-62 NSCLC, in the test with HT29 colon and in the test on OVCAR-4 ovarian was greater than 100 µM in each case. The molecule also showed a TGI with MOLT-4 leukemia greater than 100 µM.

`C=CCNc1ccc(C)cc1`: the TGI with LOX IMVI melanoma, in the test on HCT-15 colon, in the test on M14 melanoma, in the test with COLO 205 colon, in the test on SK-MEL-28 melanoma and in the test on SF-268 CNS was greater than 100 µM in each case. The TGI in the test on NCI-H522 lung, in the test on SN12C renal, with MCF7 breast, with OVCAR-3 ovarian, in the test on CCRF-CEM leukemia and in the test on HCT-116 colon was greater than 100 µM in each case. The TGI in the test on SNB-19 CNS, in the test with NCI-H23 lung, in the test with HT29 colon, in the test on OVCAR-4 ovarian and with MOLT-4 leukemia was greater than 100 µM throughout.

Regarding `Cc1cc(NS(=O)(=O)c2ccc(N=Nc3c(O)c(C(=O)O)cc4ccccc34)cc2)nc(C)n1`, the TGI with HCT-15 colon, with M14 melanoma, in the test on COLO 205 colon, with SK-MEL-28 melanoma, in the test on SK-OV-3 ovarian and in the test with SF-268 CNS was greater than 100 µM each time. Also, the TGI in the test on CAKI-1 renal, in the test with NCI-H522 lung, in the test with MCF7 breast, in the test on OVCAR-3 ovarian, in the test on CCRF-CEM leukemia and in the test on HCT-116 colon was greater than 100 µM each time. The TGI with SNB-19 CNS, in the test on HOP-62 NSCLC, with HT29 colon, in the test with OVCAR-4 ovarian and with MOLT-4 leukemia was greater than 100 µM throughout.

`C[N+](C)(N)CCC[N+](C)(C)N`: the TGI with LOX IMVI melanoma, in the test with HCT-15 colon, in the test on M14 melanoma, in the test with COLO 205 colon, in the test with SK-MEL-28 melanoma and with SK-OV-3 ovarian was greater than 100 µM in each case. In addition, the TGI in the test on SF-268 CNS, in the test with CAKI-1 renal, in the test on NCI-H522 lung, in the test with SN12C renal, in the test with MCF7 breast and in the test on OVCAR-3 ovarian was greater than 100 µM in each case. For the same molecule, the TGI in the test with CCRF-CEM leukemia, with HCT-116 colon, in the test on SNB-19 CNS, with NCI-H23 lung, in the test on HOP-62 NSCLC and in the test with HT29 colon was greater than 100 µM in each case. In addition, the TGI with OVCAR-4 ovarian and in the test on MOLT-4 leukemia was greater than 100 µM throughout.
